The text below walks through data of US10993920B2, “2-dodecyl-6-methoxycyclohexa-2,5-diene-1,4-dione as a cancer therapeutic” (MIDDLE TENNESSEE STATE UNIVERSITY, priority 2014, dated 2021).

For orientation: IC50 means the midpoint of a concentration-inhibition curve.

Series [1] relates to MCF-7. Description: Oxidative stress determination (DHE, HCS). Type of series: cell-based, human. The following applies: 48 h. How it is done:
(§1) MCF-7 and BT20 cells were seeded in a 96-well tissue culture-treated plate (Corning Costar) at a density of 8,000 cells/well and were subsequently treated with different concentrations (10, 32, 100 μM) of DMDD for 48 h. Non-treated cells served as negative control, and cells treated with 1 μM Retenone served as positive control. Afterwards, the cells were stained with Hoechst 33342 (Thermo Scientific) and dihydroethidium (DHE) (Sigma), fixed and evaluated on an ArrayScan VTI HCS Reader (Thermo Scientific). The generation of ROS in cells was quantified by the oxidation of non-fluorescent DHE to fluorescent ethidium, which subsequently binds to DNA. The Nuclear Translocation BioApplication software (Thermo Scientific) was used for image acquisition and analysis. For each well, at least 400 cells were automatically acquired and analyzed. Oxidative stress activation was assessed by the DHE staining in the nucleus and measured by the average intensity of fluorescent ethidium in the identified nuclear region (MEAN_CircAvgIntenCh2).

Series [2] deals with BT20. Description: Oxidative stress determination (DHE, HCS). The class given is cell-based, human. The note with it: 48 h. On the procedure:
as §1

Series [3] has as its system MCF-7. Description: Anti-proliferation assay (PrestoBlue) and IC50 determination. Type of series: cell-based, human. How it is done:
(§2) BT20 and MCF-7, human breast carcinoma cell lines (ATCC), were maintained in RPMI 1640 and Dulbecco's Modified Eagle Medium (DMEM) (Sigma), respectively. THP-1, a human monocytic leukemic cell line (ATCC), was maintained in RPMI 1640. HMEC, a normal human mammary epithelial cell line (ATCC), was maintained in McCoy's 5A (ATCC). All mediums were supplemented with 10% fetal bovine serum (FBS) (Gibco) and 1% penicillin-streptomycin and all cells were incubated in a humidified atmosphere with 5% CO2 at 37° C.
(§3) The proliferation inhibition potential of DMDD was determined in human breast cancer cell lines MCF-7 and BT20 by a fluorescence dye staining method with the normal cell line HMEC serving as a control. Cells were seeded at a density of 4˜5×10^3 cells/well in a 96-well tissue culture-treated plate (Corning Costar) and were incubated overnight. They were then treated with DMDD at final concentrations of 320 μM, 100 μM, 32 μM, 10 μM, 3.2 μM, 1 μM, and 0.32 μM. An experimental control with cells only was also included. After incubation for 48 h, the viability of cells was assessed using PrestoBlue dye (Invitrogen) according to manufacturer's protocol. The fluorescence intensity was measured on a SpectraMax M2e microplate reader (Molecular Devices, Inc.) at a fluorescent excitation wavelength of 555 nm and emission wavelength of 590 nm. The results were expressed as a percentage, relative to untreated control cells, and the half maximal inhibitory concentration (IC50) values were calculated using non-linear regression analysis.

The subject of series [4] is BT20. The series is described as above. Type of series: cell-based, human. On the procedure: as §2, §3
For series [5], the system named is MCF-7. In words: Multi parameter cytotoxicity measurement (HCS). Type of series: cell-based, human. The following applies: MCF-7, 48 h, dose-dependent. How it is done: MCF-7 and BT20 cells were seeded in a 96-well plate (Corning Costar) at a density of 4,000 cells/well and subsequently treated with different concentrations (10, 32, 100 μM) of DMDD for 48 h. Non-treated cells and cells treated with 100 μM Valinomycin were used as negative (control) and positive controls, respectively. Afterwards, the cells were stained with a mixture of fluorescent dyes including Hoechst 33342, cell permeability dye and mitochondrial membrane potential dye (Thermo Scientific). These dyes indicated changes in nuclear morphology (Channel 1), cell membrane permeability (Channel 2) and mitochondrial transmembrane potential (Channel 3), respectively. The cells were fixed and washed, and images for each fluoroprobe were acquired at different channels using suitable filters with a 20× objective and analyzed on the Arrayscan VTI HCS Reader (Thermo Scientific). The Cell Health Profiling BioApplication (Thermo Scientific) was used for image acquisition and analysis. For each well, at least 400 cells were automatically acquired and analyzed. The average fluorescent intensity was used to quantify changes in each channel.

For series [6] the following is noted: single dose 5,000 mg/kg body weight; cited from earlier work.
In series [7] the test system is MCF-7. Description: Cell cycle analysis (PI staining). The class given is cell-based, human. The following applies: MCF-7, 24 h; increased from 52%; not concentration-dependent. How it is done:
(§4) MCF-7 and BT20 cells were first synchronized in the G0 phase by culturing cells for 24 h in serum-free medium, and then treated with 100 μM DMDD for 24 h. Cell cycle analysis was performed using propidium iodide (PI) (Millipore) staining as described (27). Cells were analyzed using a Guava flow cytometer with InCyte software (Millipore).

The test system of series [8] is BT20. In words: Cell cycle analysis (PI staining). The note with it: BT20, 24 h; increased from 46%; not concentration-dependent. The class given is cell-based, human. How it is done: as §4
Series [9] concerns caspase-3, -8, -9 expression in pancreas tissue. The note with it: pancreas tissue of mice; cited from earlier work.
In series [10] the test system is NF-κB nuclear translocation in MCF-7 cells. In words: Inhibition of TNF-α activated NF-κB translocation (HCS). The class given is cell-based, human. The following applies: MCF-7, 2 h, 10 ng/ml TNF-α; concentration-dependent. How it is done:
MCF-7 cells were seeded in a 96 well plate (Corning Costar) at a density of 8,000 cells/well and then treated with 100 μM DMDD for 2 h, followed by the addition of 10 ng/ml tumor necrosis factor-alpha (TNF-α) (Sigma). Untreated cells and cells treated with 10 ng/ml TNF-α alone served as controls. Cells were fixed, permeabilized, and sequentially stained with Nuclear factor kappa B (NF-κB) primary antibody, Dylight 488-conjugated secondary antibody, and Hoechst 33342 dye. The Hoechst and DyLight fluorophores detect changes in nuclear morphology (blue fluorescence) and NF-κB distribution (green fluorescence), respectively. The samples were analyzed on an Arrayscan VTI HCS Reader (Thermo Scientific). The Nuclear Translocation BioApplication (Thermo Scientific) was used for image acquisition and analysis. For each well, at least 400 cells were automatically acquired and analyzed. The translocation index was calculated by measuring the average intensity difference of NF-κB between the identified cytoplasmic region and nuclear region (MEAN_CircRingAvgIntenDiffCh2).

The subject of series [11] is NF-κB nuclear translocation in BT20 cells. The series is described as above. Type of series: cell-based, human. The note with it: BT20, 10 ng/ml TNF-α; 10 μM more significant than 32 and 100 μM.

In the case of `CCCCCCCCCCCCC1=CC(=O)C=C(OC)C1=O` [DMDD, 2-dodecyl-6-methoxycyclohexa-2,5-diene-1,4-dione], the “ROS level versus untreated control” value is listed as “nearly two-fold” in [1] (MCF-7, 10 μM); “nearly two-fold” in [1] (MCF-7, 100 μM); “nearly two-fold” in series [2] (BT20, 10 μM); “nearly two-fold” in series [2] (BT20, 100 μM). For the same molecule, the “ROS level versus non-treated control” value is recorded as “nearly three-fold” in [1] (MCF-7, 33 μM) and “nearly three-fold” in series [2] (BT20, 33 μM). Further, the IC50 in [3] (Homo sapiens, MCF7, MCF-7, 48 h treatment) was 3.44 µM; in [4] (Homo sapiens, BT-20, BT20, 48 h treatment), 5.03 µM. Besides, the cell death in series [3] (MCF-7, 3.2 μM) turned out to be 49.9%; in series [3] (MCF-7, 10 μM), 84.5%; in [4] (BT20, 3.2 μM) it was 43.8%; in [4] (BT20, 10 μM) it was 63.5%. In addition, the mitochondrial membrane potential result in [5] is “loss of mitochondrial potential”. Further, the plasma membrane permeability entry in series [5] was “increased plasma membrane permeability”. The acute toxicity entry in series [6] is recorded as “did not cause any acute toxicity”. The “percentage of G1 phase cells” value in series [7] came to 71%; in series [8] it was 65%. Moreover, the “caspase-3, -8, -9 expression” value in series [9] is “significantly reduced”. For the same molecule, the “inhibition of TNF-α-induced NF-κB nuclear translocation” value in series [10] and in series [11] was “significant inhibition” throughout.
